According to patent publication US7129352B2, “Crystalline salts of 7-′4-(4-fluorophenyl) -6-isopropyl-2-′methyl (methylsulfonyl) amino!pyrimidin-5-yl!- (3R, 5S) -3, 5-dihydroxyhept-6-enoic acid” (AstraZeneca AB, priority 2000, dated 2006):

Key:
[1] = solubility profile of the crystalline salt; assay type: physicochemical
[2] = hygroscopicity of the crystalline salt; assay type: physicochemical

**Q.** Which solubility profile [1] does the source give for “tris(hydroxymethyl)methylammonium (E)-7-[4-(4-fluorophenyl)-6-isopropyl-2-[methyl(methylsulfonyl)amino]pyrimidin-5-yl]-(3R,5S)-3,5-dihydroxyhept-6-enoate [Example 2]” here?
**A.** The solubility profile was “advantageous solubility profile”.

**Q.** What about the hygroscopicity [2] of the same substance?
**A.** Its hygroscopicity is “non-hygroscopic”.
